Source: patent US10508104B2, “6-hydroxy-5-(phenyl/heteroarylsulfonyl)pyrimidin-4(1H)-one as APJ agonists” (Bristol-Myers Squibb Company, priority 2016, dated 2019)

Molecular target: human APJ receptor (Homo sapiens (Human), UniProt P35414)
Test: Intracellular cAMP accumulation assay (APJ hcAMP, HTRF)
Type: cell-based
Conditions: HEK293 cells stably expressing human APJ receptor; inhibition of forskolin-mediated cAMP production; read-out: Human APJ cAMP EC50 Potency range
How it was run: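 HEK293 cells stably expressing human APJ, 5,000 per well, incubated 30 min at rt with compound, […] and 2 μM forskolin. cAMP measured by HTRF against a cAMP standard curve as inhibition of forskolin-driven production. EC50 from variable-slope sigmoidal fit.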

Chain of human APJ receptor (P35414 whole entry): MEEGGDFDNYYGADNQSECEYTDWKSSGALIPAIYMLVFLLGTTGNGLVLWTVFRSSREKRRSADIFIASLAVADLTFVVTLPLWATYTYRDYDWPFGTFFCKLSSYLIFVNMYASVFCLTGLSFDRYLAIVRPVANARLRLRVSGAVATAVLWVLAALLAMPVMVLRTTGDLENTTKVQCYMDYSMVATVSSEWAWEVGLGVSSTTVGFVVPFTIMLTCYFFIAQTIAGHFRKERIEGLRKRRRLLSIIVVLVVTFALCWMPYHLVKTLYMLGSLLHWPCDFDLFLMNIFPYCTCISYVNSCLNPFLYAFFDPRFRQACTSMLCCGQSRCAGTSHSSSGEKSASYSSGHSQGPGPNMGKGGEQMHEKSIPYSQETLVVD

Row | EC50 [nM] | SMILES
1 | 0.01 to 10 | CCCCc1nc(=O)c(S(=O)(=O)c2ccc(-c3cccnc3C)cc2)c(O)n1[C@@H](CC)c1ccc(F)cc1 [Example 425, 2-butyl-1-[(1S)-1-(4-fluorophenyl)propyl]-6-hydroxy-5-[4-(2-methylpyridin-3-yl)benzenesulfonyl]-1,4-dihydropyrimidin-4-one]
2 | 0.01 to 10 | CCCCc1nc(=O)c(S(=O)(=O)c2ccc(-c3ccc(F)nc3C)cc2)c(O)n1[C@@H](CC)c1ccccc1F [Example 431, 2-butyl-5-[4-(6-fluoro-2-methylpyridin-3-yl)benzenesulfonyl]-1-[(1S)-1-(2-fluorophenyl)propyl]-6-hydroxy-1,4-dihydropyrimidin-4-one]
3 | 0.01 to 10 | CCOCc1nc(=O)c(S(=O)(=O)c2ccc(-c3cccnc3C)cc2)c(O)n1[C@@H](CC)c1cccc(C#N)c1 [Example 435, 3-[(1S)-1-[2-(ethoxymethyl)-6-hydroxy-5-[4-(2-methylpyridin-3-yl)benzenesulfonyl]-4-oxo-1,4-dihydropyrimidin-1-yl]propyl]benzonitrile]
4 | 0.01 to 10 | CCOCc1nc(=O)c(S(=O)(=O)c2ccc(-c3ccc(F)nc3C)cc2)c(O)n1[C@@H](CC)c1cccc(C#N)c1 [Example 436, 3-[(1S)-1-[2-(ethoxymethyl)-5-[4-(6-fluoro-2-methylpyridin-3-yI)benzenesulfonyl]-6-hydroxy-4-oxo-1,4-dihydropyrimidin-1-yl]propyl]benzonitrile]
5 | 0.01 to 10 | CCOCc1nc(=O)c(S(=O)(=O)c2ccc(-c3ccnc(F)c3C)cc2)c(O)n1[C@@H](CC)c1cccc(C#N)c1 [Example 437, 3-[(1S)-1-[2-(ethoxymethyl)-5-[4-(2-fluoro-3-methylpyridin-4-yl)benzenesulfonyl]-6-hydroxy-4-oxo-1,4-dihydropyrimidin-1-yl]propyl]benzonitrile]
6 | 0.01 to 10 | CCCCc1nc(=O)c(S(=O)(=O)c2ccc(-c3cccnc3C)cc2)c(O)n1[C@@H](CC)c1ccc(F)c(C#N)c1 [Example 439, 5-[(1S)-1-{2-butyl-6-hydroxy-5-[4-(2-methylpyridin-3-yl)benzenesulfonyl]-4-oxo-1,4-dihydropyrimidin-1-yl}propyl]-2-fluorobenzonitrile]
7 | 0.01 to 10 | CCCCc1nc(=O)c(S(=O)(=O)c2ccc(-c3ccc(F)nc3C)cc2)c(O)n1[C@@H](CC)c1ccc(F)c(C#N)c1 [Example 440, 5-[(1S)-1-{2-butyl-5-[4-(6-fluoro-2-methylpyridin-3-yl)benzenesulfonyl]-6-hydroxy-4-oxo-1,4-dihydropyrimidin-1-yl}propyl]-2-fluorobenzonitrile]
8 | 0.01 to 10 | CC[C@@H](c1cccc(C#N)c1)n1c(CC2CC2)nc(=O)c(S(=O)(=O)c2ccc(-c3ccncc3C)cc2)c1O [Example 441, 3-[(1S)-1-[2-(cyclopropylmethyl)-6-hydroxy-5-[4-(3-methylpyridin-4-yl)benzenesulfonyl]-4-oxo-1,4-dihydropyrimidin-1-yl]propyl]benzonitrile]
9 | 0.01 to 10 | CC[C@@H](c1cccc(C#N)c1)n1c(CC2CC2)nc(=O)c(S(=O)(=O)c2ccc(-c3ccc(F)nc3C)cc2)c1O [Example 444, 3-[(1S)-1-[2-(cyclopropylmethyl)-5-[4-(6-fluoro-2-methylpyridin-3-yl)benzenesulfonyl]-6-hydroxy-4-oxo-1,4-dihydropyrimidin-1-yl]propyl]benzonitrile]
10 | 0.01 to 10 | CCCCc1nc(=O)c(S(=O)(=O)c2ccc(-c3ccnc(F)c3C)cc2)c(O)n1[C@@H](CC)c1cc(F)cc(F)c1 [Example 446, 2-butyl-1-[(1S)-1-(3,5-difluorophenyl)propyl]-5-[4-(2-fluoro-3-methylpyridin-4-yl)benzenesulfonyl]-6-hydroxy-1,4-dihydropyrimidin-4-one]
11 | 0.01 to 10 | CCCCc1nc(=O)c(S(=O)(=O)c2ccc(-c3ccncc3C)cc2)c(O)n1[C@H](c1cccc(C#N)c1)C(C)C [Example 447, 3-[(1S)-1-{2-butyl-6-hydroxy-5-[4-(3-methylpyridin-4-yl)benzenesulfonyl]-4-oxo-1,4-dihydropyrimidin-1-yl}-2-methylpropyl]benzonitrile]
12 | 0.01 to 10 | CCCCc1nc(=O)c(S(=O)(=O)c2ccc(-c3cccnc3C)cc2)c(O)n1[C@@H](CC)c1cc(F)cc(C#N)c1 [Example 449, 3-[(1S)-1-{2-butyl-6-hydroxy-5-[4-(2-methylpyridin-3-yl)benzenesulfonyl]-4-oxo-1,4-dihydropyrimidin-1-yl}propyl]-5-fluorobenzonitrile]
13 | 0.01 to 10 | CCCCc1nc(=O)c(S(=O)(=O)c2ccc(-c3ccncc3C)cc2)c(O)n1[C@@H](CC)c1cc(F)cc(C#N)c1 [Example 450, 3-[(1S)-1-{2-butyl-6-hydroxy-5-[4-(3-methylpyridin-4-yl)benzenesulfonyl]-4-oxo-1,4-dihydropyrimidin-1-yl}propyl]-5-fluorobenzonitrile]
14 | 0.01 to 10 | CCCCc1nc(=O)c(S(=O)(=O)c2ccc(-c3ccc(F)nc3C)cc2)c(O)n1[C@H](c1cccc(C#N)c1)C(C)C [Example 452, 3-[(1S)-1-{2-butyl-5-[4-(6-fluoro-2-methylpyridin-3-yl)benzenesulfonyl]-6-hydroxy-4-oxo-1,4-dihydropyrimidin-1-yl}-2-methylpropyl]benzonitriIe]
15 | 0.01 to 10 | CCCCc1nc(=O)c(S(=O)(=O)c2ccc(-c3ccc(F)nc3C)cc2)c(O)n1[C@@H](CC)c1cc(F)cc(C#N)c1 [Example 453, 3-[(1S)-1-{2-butyl-5-[4-(6-fluoro-2-methylpyridin-3-yl)benzenesulfonyl]-6-hydroxy-4-oxo-1,4-dihydropyrimidin-1-yl}propyl]-5-fluorobenzonitrile]

Continued, compound first:

Row | SMILES | EC50 [nM]
16 | CCCCc1nc(=O)c(S(=O)(=O)c2ccc(-c3ccc(F)nc3C)cc2)c(O)n1[C@@H](CC)c1ccc(F)cc1 [Example 426, 2-butyl-5-[4-(6-fluoro-2-methylpyridin-3-yl)benzenesulfonyl]-1-[(1S)-1-(4-fluorophenyl)propyl]-6-hydroxy-1,4-dihydropyrimidin-4-one] | 0.01 to 10
17 | CCCCc1nc(=O)c(S(=O)(=O)c2ccc(-c3ccncc3C)cc2)c(O)n1[C@@H](CC)c1cc(F)cc(F)c1 [Example 427, 2-butyl-1-[(1S)-1-(3,5-difluorophenyl)propyl]-6-hydroxy-5-[4-(3-methylpyridin-4-yl)benzenesulfonyl]-1,4-dihydropyrimidin-4-one] | 0.01 to 10
18 | CCCCc1nc(=O)c(S(=O)(=O)c2ccc(-c3cccnc3C)cc2)c(O)n1[C@@H](CC)c1ccccc1F [Example 430, 2-butyl-1-[(1S)-1-(2-fluorophenyl)propyl]-6-hydroxy-5-[4-(2-methylpyridin-3-yl)benzenesulfonyl]-1,4-dihydropyrimidin-4-one] | 0.01 to 10
19 | CCCCc1nc(=O)c(S(=O)(=O)c2ccc(-c3ccnc(F)c3C)cc2)c(O)n1[C@@H](CC)c1ccccc1F [Example 432, 2-butyl-5-[4-(2-fluoro-3-methylpyridin-4-yl)benzenesulfonyl]-1-[(1S)-1-(2-fluorophenyl)propyl]-6-hydroxy-1,4-dihydropyrimidin-4-one] | 0.01 to 10
20 | CCCCc1nc(=O)c(S(=O)(=O)c2ccc(-c3ccc(F)nc3C)cc2)c(O)n1[C@@H](CC)c1cc(F)cc(F)c1 [Example 433, 2-butyl-1-[(1S)-1-(3,5-difluorophenyl)propyl]-5-[4-(6-fluoro-2-methylpyridin-3-yl)benzenesulfonyl]-6-hydroxy-1,4-dihydropyrimidin-4-one] | 0.01 to 10
21 | CCOCc1nc(=O)c(S(=O)(=O)c2ccc(-c3ccncc3C)cc2)c(O)n1[C@@H](CC)c1cccc(C#N)c1 [Example 434, 3-[(1S)-1-[2-(ethoxymethyl)-6-hydroxy-5-[4-(3-methylpyridin-4-yl)benzenesulfonyl]-4-oxo-1,4-dihydropyrimidin-1-yl]propyl]benzonitrile] | 0.01 to 10
22 | CCCCc1nc(=O)c(S(=O)(=O)c2ccc(-c3ccnc(F)c3C)cc2)c(O)n1[C@@H](CC)c1ccc(F)c(C#N)c1 [Example 438, 5-[(1S)-1-{2-butyl-5-[4-(2-fluoro-3-methylpyridin-4-yl)benzenesulfonyl]-6-hydroxy-4-oxo-1,4-dihydropyrimidin-1-yl}propyl]-2-fluorobenzonitrile] | 0.01 to 10
23 | CC[C@@H](c1cccc(C#N)c1)n1c(CC2CC2)nc(=O)c(S(=O)(=O)c2ccc(-c3ccnc(F)c3C)cc2)c1O [Example 442, 3-[(1S)-1-[2-(cyclopropylmethyl)-5-[4-(2-fluoro-3-methylpyridin-4-yl)benzenesulfonyl]-6-hydroxy-4-oxo-1,4-dihydropyrimidin-1-yl]propyl]benzonitrile] | 0.01 to 10
24 | CC[C@@H](c1cccc(C#N)c1)n1c(CC2CC2)nc(=O)c(S(=O)(=O)c2ccc(-c3cccnc3C)cc2)c1O [Example 443, 3-[(1S)-1-[2-(cyclopropylmethyl)-6-hydroxy-5-[4-(2-methylpyridin-3-yl)benzenesulfonyl]-4-oxo-1,4-dihydropyrimidin-1-yl]propyl]benzonitrile] | 0.01 to 10
25 | CCOCc1nc(=O)c(S(=O)(=O)c2ccc(-c3cccnc3C)cc2)c(O)n1[C@@H](CC)c1cccc(C#N)c1 [Example 445, 3-[(1S)-1-[2-(ethoxymethyl)-6-hydroxy-5-[4-(2-methylpyridin-3-yl)benzenesulfonyl]-4-oxo-1,4-dihydropyrimidin-1-yl]propyl]benzonitrile] | 0.01 to 10
26 | CCCCc1nc(=O)c(S(=O)(=O)c2ccc(-c3cccnc3C)cc2)c(O)n1[C@H](c1cccc(C#N)c1)C(C)C [Example 448, 3-[(1S)-1-{2-butyl-6-hydroxy-5-[4-(2-methylpyridin-3-yl)benzenesulfonyl]-4-oxo-1,4-dihydropyrimidin-1-yl}-2-methylpropyl]benzonitrile] | 0.01 to 10
27 | CCCCc1nc(=O)c(S(=O)(=O)c2ccc(-c3ccnc(F)c3C)cc2)c(O)n1[C@H](c1cccc(C#N)c1)C(C)C [Example 451, 3-[(1S)-1-{2-butyl-5-[4-(2-fluoro-3-methylpyridin-4-yl)benzenesulfonyl]-6-hydroxy-4-oxo-1,4-dihydropyrimidin-1-yl}-2-methylpropyl]benzonitrile] | 0.01 to 10
